In ChEMBL document CHEMBL2021812, “Aryltriflates as a Neglected Moiety in Medicinal Chemistry: A Case Study from a Lead Optimization of CXCL8 Inhibitors” (ACS Med Chem Lett, 2011):

Test system: not listed separately
Assay: Chemical stability of the compound assessed as compound remaining at pH 7.4 after 2 hrs
Format: physicochemical
Settings: buffer, read-out: Stability

`C[C@@H](C(=O)NO)c1ccc(OS(=O)(=O)C(F)(F)F)cc1` and `CONC(=O)[C@H](C)c1ccc(OS(=O)(=O)C(F)(F)F)cc1` cannot be ordered by remaining at 2 h: over 98% for the first, over 98% for the second.

Test system: not listed separately
Assay: Half life in iv dosed rat plasma
Format: ADME, organism-based
Settings: not given

`C[C@@H](C(=O)NO)c1ccc(OS(=O)(=O)C(F)(F)F)cc1` and `CONC(=O)[C@H](C)c1ccc(OS(=O)(=O)C(F)(F)F)cc1` cannot be ordered by half-life: under 1 h for the first, under 1 h for the second.

Test system: not listed separately
Assay: Metabolic stability in rat liver microsomes assessed as compound remaining at 1 uM preincubated for 10 mins measured after 30 mins
Format: ADME, Microsome
Settings: read-out: Stability

Compared with `CC(C)NC(=O)[C@H](C)c1ccc(OS(=O)(=O)C(F)(F)F)cc1`, `C[C@@H](C(=O)NO)c1ccc(OS(=O)(=O)C(F)(F)F)cc1` is higher in remaining at 0.5 h, 1 µM: 75% for the first, 87% for the second.

Work on `CONC(=O)[C@H](C)c1ccc(OS(=O)(=O)C(F)(F)F)cc1` yielded a remaining at 0.5 h, 1 µM of 65%.

Test system: not listed separately
Assay: Metabolic stability in rat plasma assessed as compound remaining at 1 uM after 1 hr
Format: ADME, cell-free
Settings: read-out: Stability

Compared with `C[C@@H](C(=O)NO)c1ccc(OS(=O)(=O)C(F)(F)F)cc1`, `CONC(=O)[C@H](C)c1ccc(OS(=O)(=O)C(F)(F)F)cc1` is higher in remaining at 1 h, 1 µM: 85% for the first, 90% for the second.

Target: T1, C-X-C chemokine receptor type 2 (Homo sapiens) (UniProt P25025)
T1 sequence (whole entry): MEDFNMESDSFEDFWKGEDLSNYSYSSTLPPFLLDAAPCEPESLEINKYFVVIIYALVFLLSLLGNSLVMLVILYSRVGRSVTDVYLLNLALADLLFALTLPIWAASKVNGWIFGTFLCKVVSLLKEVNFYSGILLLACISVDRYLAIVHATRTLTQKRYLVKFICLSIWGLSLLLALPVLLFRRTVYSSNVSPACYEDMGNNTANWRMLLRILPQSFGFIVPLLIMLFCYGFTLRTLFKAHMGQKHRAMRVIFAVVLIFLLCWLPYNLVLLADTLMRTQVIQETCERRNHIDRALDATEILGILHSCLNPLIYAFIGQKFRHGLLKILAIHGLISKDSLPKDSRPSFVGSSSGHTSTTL
Assay: Inhibition of CXCR2 in human polymorphonucleate cells assessed as inhibition of CXCL1-induced chemotaxis at 10^-8 M incubated for 15 mins prior to CXCL1-induction measured after 45 mins
Settings: not given

Compared with `CC(C)NC(=O)[C@H](C)c1ccc(OS(=O)(=O)C(F)(F)F)cc1`, `C[C@@H](C(=O)NO)c1ccc(OS(=O)(=O)C(F)(F)F)cc1` is lower in inhibition: 65% for the first, 49% for the second.

`CONC(=O)[C@H](C)c1ccc(OS(=O)(=O)C(F)(F)F)cc1` showed an inhibition of 46%.

Target: Interleukin-8 receptors, CXCR1/CXCR2 (Homo sapiens) (UniProt P25025+P25024)
Assay: Inhibition of CXCR1/2 in human polymorphonucleate cells assessed as inhibition of CXCL8-induced chemotaxis at 10^-8 M incubated for 15 mins prior to CXCL8-induction measured after 45 mins
Settings: not given

Going from `CC(C)NC(=O)[C@H](C)c1ccc(OS(=O)(=O)C(F)(F)F)cc1` to `C[C@@H](C(=O)NO)c1ccc(OS(=O)(=O)C(F)(F)F)cc1`, the inhibition falls from 58% to 50%.

`CONC(=O)[C@H](C)c1ccc(OS(=O)(=O)C(F)(F)F)cc1` showed an inhibition of 56%.
